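Grown in 96-well plates, cells were treated for 48 hours with each compound at five concentrations. Insufficient inhibition: endpoint recorded as highest concentration tested. Here, GI50 denotes the concentration required for 50% inhibition of growth.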 Active and inactive are the calls of the source. Cut-off read from the data, not from the text of the source: active = GI50 up to about 1.1 µM and inactive = higher.
What was measured:
Assay in all cases: DTP human tumour cell line panel, 48 h
[1] = test system: K562
[2] = test system: SNB-75
[3] = test system: HL-60
[4] = test system: UO-31
[5] = test system: M14
[6] = test system: SK-MEL-5
[7] = test system: NCI/ADR-RES
[8] = test system: A549
[9] = test system: NCI-H226
[10] = test system: ACHN
[11] = test system: OVCAR-8
[12] = test system: TK-10
[13] = test system: 786-0
[14] = test system: CAKI-1
[15] = test system: DU-145
[16] = test system: HCT-15
[17] = test system: SW-620
[18] = test system: MOLT-4
[19] = test system: SK-MEL-2
[20] = test system: RPMI-8226
[21] = test system: UACC-62
[22] = test system: NCI-H460
[23] = test system: SF-268
[24] = test system: MDA-N
[25] = test system: SN12C
[26] = test system: MCF7
[27] = test system: SK-OV-3
[28] = test system: CCRF-CEM
[29] = test system: IGROV-1
[30] = test system: SF-539
[31] = test system: LOX IMVI
[32] = test system: MDA-MB-435
[33] = test system: EKVX
[34] = test system: U-251
[35] = test system: HCT-116
[36] = test system: NCI-H23
[37] = test system: SNB-19
[38] = test system: T47D
[39] = test system: SK-MEL-28
[40] = test system: SR
[41] = test system: KM12
[42] = test system: HOP-62
[43] = test system: OVCAR-5
[44] = test system: PC-3
[45] = test system: COLO 205
[46] = test system: UACC-257
[47] = test system: NCI-H522
[48] = test system: A498
[49] = test system: OVCAR-3
[50] = test system: BT-549
[51] = test system: OVCAR-4
[52] = test system: HT-29
[53] = test system: Hs-578T
[54] = test system: MDA-MB-231
[55] = test system: SF-295
[56] = test system: Malme-3M
[57] = test system: HOP-92
[58] = test system: HCC 2998
[59] = test system: RXF 393

In the case of `Cc1ccc2c(c1)nc(N)n[n+]2[O-]`, the GI50 [1] was > 100 µM (inactive), the GI50 [2] was 85.9 µM (inactive) and the GI50 [3] was > 100 µM (inactive). For the same molecule, the GI50 [4] was > 100 µM (inactive), the GI50 [5] was > 100 µM (inactive) and the GI50 [6] was > 100 µM (inactive). For the same molecule, the GI50 [7] was > 100 µM (inactive), the GI50 [8] was > 100 µM (inactive) and the GI50 [9] was > 100 µM (inactive). The GI50 [10] was > 100 µM (inactive), the GI50 [11] was > 100 µM (inactive) and the GI50 [12] was > 100 µM (inactive). For the same molecule, the GI50 [13] was > 100 µM (inactive), the GI50 [14] was > 100 µM (inactive) and the GI50 [15] was > 100 µM (inactive). For the same molecule, the GI50 [16] was > 100 µM, the GI50 [17] was > 100 µM (inactive) and the GI50 [18] was > 100 µM (inactive). For the same molecule, the GI50 [19] was > 100 µM (inactive), the GI50 [20] was > 100 µM (inactive) and the GI50 [21] was > 100 µM (inactive). The GI50 [22] was > 100 µM (inactive), the GI50 [23] was > 100 µM (inactive) and the GI50 [24] was > 100 µM (inactive). The GI50 [25] was > 100 µM (inactive), the GI50 [26] was > 100 µM (inactive) and the GI50 [27] was > 100 µM (inactive). For the same molecule, the GI50 [28] was > 100 µM (inactive), the GI50 [29] was > 100 µM (inactive) and the GI50 [30] was > 100 µM (inactive). For the same molecule, the GI50 [31] was > 100 µM (inactive), the GI50 [32] was > 100 µM (inactive) and the GI50 [33] was > 100 µM (inactive). For the same molecule, the GI50 [34] was > 100 µM (inactive), the GI50 [35] was > 100 µM (inactive) and the GI50 [36] was > 100 µM (inactive). For the same molecule, the GI50 [37] was > 100 µM (inactive), the GI50 [38] was > 100 µM (inactive) and the GI50 [39] was > 100 µM (inactive). For the same molecule, the GI50 [40] was > 100 µM (inactive), the GI50 [41] was > 100 µM (inactive) and the GI50 [42] was > 100 µM (inactive). For the same molecule, the GI50 [43] was > 100 µM (inactive), the GI50 [44] was > 100 µM (inactive) and the GI50 [45] was > 100 µM (inactive). For the same molecule, the GI50 [46] was > 100 µM (inactive), the GI50 [47] was > 100 µM (inactive) and the GI50 [48] was > 100 µM (inactive). For the same molecule, the GI50 [49] was > 100 µM (inactive), the GI50 [50] was > 100 µM (inactive) and the GI50 [51] was > 100 µM (inactive). For the same molecule, the GI50 [52] was > 100 µM (inactive), the GI50 [53] was > 100 µM (inactive) and the GI50 [54] was > 100 µM (inactive). The GI50 [55] was > 100 µM (inactive).
`CC(=NNC(=S)Nc1ccccc1)c1cccc(C(C)=NNC(=S)Nc2ccccc2)n1` was tested, and the GI50 [1] was 3.04 µM (inactive), the GI50 [2] was 10.8 µM (inactive) and the GI50 [3] was 0.189 µM (active). For the same molecule, the GI50 [4] was 2.34 µM (inactive), the GI50 [5] was 1.97 µM (inactive) and the GI50 [6] was 2.64 µM (inactive). For the same molecule, the GI50 [7] was 1.61 µM (inactive), the GI50 [8] was 3.94 µM (inactive) and the GI50 [9] was 1.06 µM (active). For the same molecule, the GI50 [10] was 1.23 µM (inactive), the GI50 [11] was 0.968 µM (active) and the GI50 [12] was 4.24 µM (inactive). The GI50 [13] was 1.75 µM (inactive), the GI50 [14] was 1.79 µM (inactive) and the GI50 [15] was > 20.1 µM (inactive). For the same molecule, the GI50 [16] was 4.58 µM, the GI50 [17] was 3.66 µM (inactive) and the GI50 [18] was 2.29 µM (inactive). The GI50 [19] was 41.1 µM (inactive), the GI50 [20] was 2.83 µM (inactive) and the GI50 [21] was 2.43 µM (inactive). For the same molecule, the GI50 [22] was 2.65 µM (inactive), the GI50 [24] was 14.1 µM (inactive) and the GI50 [25] was 4.48 µM (inactive). For the same molecule, the GI50 [26] was 3.11 µM (inactive), the GI50 [27] was 5.98 µM (inactive) and the GI50 [28] was 1.74 µM (inactive). For the same molecule, the GI50 [29] was 2.08 µM (inactive), the GI50 [56] was 4.57 µM (inactive) and the GI50 [30] was 1.47 µM (inactive). For the same molecule, the GI50 [31] was 2.24 µM (inactive), the GI50 [32] was 8.32 µM (inactive) and the GI50 [33] was 6.98 µM (inactive). The GI50 [57] was 2.25 µM (inactive), the GI50 [34] was 4.99 µM (inactive) and the GI50 [35] was 3.32 µM (inactive). The GI50 [36] was 7.46 µM (inactive), the GI50 [37] was 19.3 µM (inactive) and the GI50 [38] was 5.96 µM (inactive). For the same molecule, the GI50 [39] was > 100 µM (inactive), the GI50 [58] was 3.64 µM (inactive) and the GI50 [41] was 3.38 µM (inactive). For the same molecule, the GI50 [42] was 2.11 µM (inactive), the GI50 [43] was > 22 µM (inactive) and the GI50 [44] was 5.21 µM (inactive). The GI50 [45] was 2.48 µM (inactive), the GI50 [46] was 8.83 µM (inactive) and the GI50 [47] was 5.35 µM (inactive). The GI50 [48] was 7.55 µM (inactive), the GI50 [49] was 1.38 µM (inactive) and the GI50 [50] was 12.2 µM (inactive). For the same molecule, the GI50 [51] was 3.66 µM (inactive), the GI50 [59] was 3.01 µM (inactive) and the GI50 [52] was 2.34 µM (inactive). The GI50 [53] was > 37.8 µM (inactive), the GI50 [54] was 4.62 µM (inactive) and the GI50 [55] was 3.62 µM (inactive).

Source: ChEMBL document CHEMBL1201862, “PubChem BioAssay data set” (2004)
